Measurements reported in paper PMC12193833, “Toxicity Assessment and Antifungal Potential of Copper(II) and Silver(I) Complexes with 1,10-Phenanthroline-5,6-dione Against Drug-Resistant Clinical Isolates of Cryptococcus gattii and Cryptococcus neoformans” (Journal of Fungi, 2025).
Like-named read-outs stand apart in the source and are kept apart here.

Tests used:
[1] = tested on: C. neoformans clinical isolates; assay: MIC/MFC of test compounds, microdilution; format: cell-based, Cryptococcus neoformans; conditions: for MIC: read-out: MIC
Excerpt: (§1) Six clinical isolates belonging to the Cryptococcus genus were obtained from patients who attended the Instituto Nacional de Infectologia Evandro Chagas (INI), Fundação Oswaldo Cruz (FIOCRUZ), and were kindly provided by Dr. Rodrigo Almeida-Paes (INI-FIOCRUZ). To comply with ethical standards and institutional agreements between UFRJ and FIOCRUZ, patient data were not disclosed. In this sense, the C. neoformans isolates were designated CFP00213 (213), CFP00223 (223), and CFP00350 (350), while the C. gattii isolates were labeled CFP00023 (23), CFP00025 (25), and CFP00027 (27). Before each experiment, an aliquot of the culture was transferred from Sabouraud dextrose agar (2% glucose, 1% peptone, and 0.5% yeast extract) to RPMI 1640 medium (Sigma-Aldrich, St. Louis, MO, USA), pH 7.2, buffered with 0.165 M MOPS (Sigma-Aldrich, St. Louis, MO, USA). RPMI medium induces the expression of capsular polysaccharides, the primary virulence factor of Cryptococcus cells. The cultures were incubated at 37 °C for 48 h to promote cell proliferation, stimulate metabolic activation, and enhance capsular development. Yeast cell counts were determined using a Neubauer chamber.
(§2) Following MIC determination, the MFC was assessed by inoculating 10 µL from wells showing no visible fungal growth onto Sabouraud dextrose agar. […] To further support and strengthen the evidence of the anti-Cryptococcus activity of the Cu-phendione and Ag-phendione complexes, we additionally performed MIC/MFC assays using well-characterized standard reference strains: ATCC 28957, H99, T1444 (all C. neoformans), and R265 (C. gattii).

[2] = tested on: C. gattii clinical isolates; assay: MIC/MFC of test compounds, microdilution; format: cell-based, Cryptococcus gattii; conditions: for MIC: read-out: MIC
Excerpt: as §1, §2

[3] = tested on: C. neoformans reference strains (ATCC 28957, H99, T1444); assay: MIC of complexes against reference strains; format: cell-based, Cryptococcus neoformans
Excerpt: (§3) To further support and strengthen the evidence of the anti-Cryptococcus activity of the Cu-phendione and Ag-phendione complexes, we additionally performed MIC/MFC assays using well-characterized standard reference strains: ATCC 28957, […], […] (all C. neoformans), and […]).

[4] = tested on: C. gattii reference strain R265; assay: MIC of complexes against reference strain; format: cell-based, Cryptococcus gattii
Excerpt: as §3

[5] = tested on: C. neoformans or C. gattii; assay: Stability of antifungal activity (MIC repeated every six months over two years); format: cell-based, Cryptococcus neoformans and Cryptococcus gattii; conditions: same DMSO solution, room temperature, protected from light, MIC every six months for 730 days
Excerpt: To evaluate the stability of the antifungal activity of the test complexes, the MIC assay was repeated every six months over a two-year period using the same Ag-phendione or Cu-phendione solution. The solutions were stored at room temperature and protected from light to maintain their chemical integrity.

[6] = tested on: Galleria mellonella larvae; assay: In vivo acute toxicity, single treatment; conditions: single inoculation; for Larval survival: 125–1000 µM, 10 µL/larva, 37 °C
Method: (§4) In this set of experiments, G. mellonella larvae weighing approximately 0.2–0.3 g and displaying clear, uniform coloration were used. The larvae were inoculated (10 µL/larva) using an insulin syringe (BD Ultra-Fine, Franklin Lakes, NJ, USA) at the last left proleg. […] We also assessed their coloration through visual analysis as an indicator of stress levels. Throughout the experiments, the larvae were maintained at 37 °C [19, 42]. Two distinct treatment protocols were designed to evaluate the effects of the test compounds on larval survivability, as detailed below.
For the acute toxicity analysis, the test compounds were administered to the larvae in a single inoculation at concentrations ranging from 1000 to 125 μM. Each group consisted of 10 larvae, while the control group received only sterile PBS with 4% DMSO. […] The SI was calculated using the following equation: SI = G. mellonella CC50/Cryptococcus MIC.

[7] = tested on: Galleria mellonella larvae; assay: In vivo chronic toxicity, multiple treatment; conditions: for Alterations in stress indicators (melanization, cocoon formation) / Chronic toxicity (larval survival monitored over seven days): 62.5 µM daily for five consecutive days; for Larval survival: daily inoculation 62.5 µM for up to five days
Method: as §4
For the chronic toxicity analysis, larvae were inoculated daily for five consecutive days with the test complexes (Cu-phendione or Ag-phendione) at a high concentration of 62.5 μM. Each group consisted of 10 larvae, while the control group received only sterile PBS with 4% DMSO.

[8] = tested on: hemocytes of G. mellonella larvae; format: in vivo, Galleria mellonella; conditions: 24 h
Method: The hemocyte density in the hemolymph of larvae inoculated with both complexes was assessed to evaluate potential immunological changes in G. mellonella. […] To analyze hemocyte density, a ventral caudal incision was made between the last prolegs of each larva using a surgical scalpel, and 10 μL of hemolymph was collected. The hemolymph was then diluted 1:100 in 990 μL of an anticoagulant buffer solution (98 mM NaOH, 186 mM NaCl, 17 mM EDTA, and 41 mM citric acid, pH 4.5). The number of hemocytes in each dilution was subsequently counted using a Neubauer chamber (Thermo Fisher Scientific, Waltham, MA USA).

[9] = tested on: mice; design: method as in doi:10.1039/c2tx00010e; conditions: cited from earlier work; for Deaths, behavioral, dietary or body weight changes: 45 mg/kg daily for five days plus seven days observation; for AST and ALT activities vs control: 45 mg/kg daily for five days
[10] = tested on: hamsters; design: method as in doi:10.1016/j.ejmcr.2022.100093; conditions: 1 mg/kg five times per week for nine weeks; cited from earlier work
[11] = tested on: Sheep erythrocytes
Method: To evaluate the hemolytic activity of the test compounds, the microdilution method was performed in PBS using 96-well cell culture plates, as described by Evans et al.. PBS containing the test compounds (phendione, Cu-phendione, and Ag-phendione) at varying concentrations (1.9–62.5 µM) was added to the wells. Sheep erythrocytes (Cultilab, Rio de Janeiro, RJ, Brazil) were diluted in PBS to a final concentration of 2% (approximately 2 × 10^8 erythrocytes) and added to each well. The final volume of each well was 200 μL. A negative control (PBS and blood) and a positive control (PBS, blood, and 1% Triton X-100) were also included. The plates were incubated at 37 °C for 24 h, then centrifuged at 500× g for 10 min at 4 °C. Following centrifugation, 100 μL of the supernatant from each well was transferred to a new 96-well microplate, and absorbance was measured using a microplate reader ([…] SkyHigh; Thermo Scientific, Waltham, MA, USA) at 415 nm. […] The average absorbance of the positive control was set as 100% hemolysis, and the percentage hemolysis of the other groups was calculated accordingly. The selectivity index (SI) was determined using the following equation: SI = erythrocyte CC50/Cryptococcus MIC.

[12] = all C. neoformans clinical isolates
[13] = all C. gattii clinical isolates

| Compound | MFC ([1]; C. neoformans isolate 213) [µM] | MIC ([1]; C. neoformans isolate 213) [µM] | MFC ([1]; C. neoformans isolate 223) [µM] | MIC ([1]; C. neoformans isolate 223) [µM] | MFC ([1]; C. neoformans isolate 350) [µM] | MIC ([1]; C. neoformans isolate 350) [µM] | MFC [1, 12] [µM] | MIC [1, 12] [µM] | MFC ([2]; C. gattii isolate 23) [µM] | MIC ([2]; C. gattii isolate 23) [µM] | MFC ([2]; C. gattii isolate 25) [µM] | MIC ([2]; C. gattii isolate 25) [µM] | MFC ([2]; C. gattii isolate 27) [µM] | MIC ([2]; C. gattii isolate 27) [µM] | MFC [2, 13] [µM] | MIC [2, 13] [µM] | MIC ([3]; C. neoformans ATCC 28957) [µM] | MIC ([3]; C. neoformans H99) [µM] | MIC ([3]; C. neoformans T1444) [µM] | MIC [4] [µM] | other results |
| --- | --- | --- | --- | --- | --- | --- | --- | --- | --- | --- | --- | --- | --- | --- | --- | --- | --- | --- | --- | --- | --- |
| O=C1C(=O)c2cccnc2-c2ncccc21.O=C1C(=O)c2cccnc2-c2ncccc21.[Ag+].[O-][Cl+3]([O-])([O-])[O-] [Ag-phendione, [Ag(phendione)2]ClO4] | 25 | 1.56 | 25 | 1.56 | 25 | 1.56 | 25 | 1.56 | 12.5 | 1.56 | 12.5 | 1.56 | 12.5 | 1.56 | 12.5 | 1.56 | 0.19 | 0.78 | 0.78 | 0.19 | Stability of antifungal activity (MIC variation) [5]: No variation in MIC values; Changes in melanization or silk/cocoon production [6]: no visible changes in melanization or silk/cocoon production; Larval survival [6]: 100%; Alterations in stress indicators (melanization, cocoon formation) [7]: no alterations; Chronic toxicity (larval survival monitored over seven days) [7]: non-toxic; Larval survival [7]: 100%; Hemocyte density vs PBS control ([8]; single inoculation, any concentration tested (15.6–1000 µM)): did not significantly affect hemocyte density; Deaths, behavioral, dietary or body weight changes [9]: no deaths or behavioral, dietary, or body weight changes; AST and ALT activities vs control [9]: No significant differences; Acute toxicity: highest dose with 100% tolerance [9]: 150 mg/kg; Deaths, changes in behavior, diet or body weight [10]: no deaths or changes in behavior, diet, or body weight; Urea, creatinine, AST, ALT and alkaline phosphatase levels vs control [10]: no differences |
| O.O.O.O.O=C1C(=O)c2cccnc2-c2ncccc21.O=C1C(=O)c2cccnc2-c2ncccc21.O=C1C(=O)c2cccnc2-c2ncccc21.[Cu+2].[O-][Cl+3]([O-])([O-])[O-].[O-][Cl+3]([O-])([O-])[O-] [Cu-phendione, [Cu(phendione)3](ClO4)2·4H2O] | 50 | 3.125 | 50 | 3.125 | 50 | 3.125 | 50 | 3.125 | 12.5 | 6.25 | 12.5 | 6.25 | 12.5 | 6.25 | 12.5 | 6.25 | 1.56 | 0.78 | 0.78 | 0.19 | Stability of antifungal activity (MIC variation) [5]: No variation in MIC values; CC50 [11]: > 62.5 µM; CC50 ([6]; assumed, read-out: CC50 (G. mellonella larvae)): > 1000 µM; Changes in melanization or silk/cocoon production [6]: no visible changes in melanization or silk/cocoon production; Larval survival [6]: 100%; Alterations in stress indicators (melanization, cocoon formation) [7]: no alterations; Chronic toxicity (larval survival monitored over seven days) [7]: non-toxic; Larval survival [7]: 100%; Hemocyte density vs PBS control ([8]; single inoculation 15.625 µM): significant increase in hemocyte density; Hemocyte density vs PBS control ([8]; single inoculation 31.25 µM): significant increase in hemocyte density; Hemocyte density vs PBS control ([8]; single inoculation, other tested concentrations): No notable changes in hemocyte levels; Deaths, behavioral, dietary or body weight changes [9]: no deaths or behavioral, dietary, or body weight changes; AST and ALT activities vs control [9]: No significant differences; Acute toxicity: highest dose with 100% tolerance [9]: 45 mg/kg; Deaths, changes in behavior, diet or body weight [10]: no deaths or changes in behavior, diet, or body weight; Urea, creatinine, AST, ALT and alkaline phosphatase levels vs control [10]: no differences |
